Measured values published in patent US20170369444A1, “INHIBITORS OF HISTONE DEMETHYLASES” (Gilead Sciences, Inc., priority 2014, published 2017).

Key:
Assay type in all cases: biochemical
KDM2B (FBXL10) = biological target: T1, KDM2B (FBXL10) (Homo sapiens, UniProt Q8NHM5); assay: Histone lysine demethylase AlphaLISA assay, KDM2B; settings: in vitro enzyme, read-out: KDM2B IC50 (HDME Inhibition)
T1 construct: 1-650; purchased BPS Bioscience, US; host or cells: Bac (baculovirus/insect cells)
T1 sequence (Q8NHM5 1-650): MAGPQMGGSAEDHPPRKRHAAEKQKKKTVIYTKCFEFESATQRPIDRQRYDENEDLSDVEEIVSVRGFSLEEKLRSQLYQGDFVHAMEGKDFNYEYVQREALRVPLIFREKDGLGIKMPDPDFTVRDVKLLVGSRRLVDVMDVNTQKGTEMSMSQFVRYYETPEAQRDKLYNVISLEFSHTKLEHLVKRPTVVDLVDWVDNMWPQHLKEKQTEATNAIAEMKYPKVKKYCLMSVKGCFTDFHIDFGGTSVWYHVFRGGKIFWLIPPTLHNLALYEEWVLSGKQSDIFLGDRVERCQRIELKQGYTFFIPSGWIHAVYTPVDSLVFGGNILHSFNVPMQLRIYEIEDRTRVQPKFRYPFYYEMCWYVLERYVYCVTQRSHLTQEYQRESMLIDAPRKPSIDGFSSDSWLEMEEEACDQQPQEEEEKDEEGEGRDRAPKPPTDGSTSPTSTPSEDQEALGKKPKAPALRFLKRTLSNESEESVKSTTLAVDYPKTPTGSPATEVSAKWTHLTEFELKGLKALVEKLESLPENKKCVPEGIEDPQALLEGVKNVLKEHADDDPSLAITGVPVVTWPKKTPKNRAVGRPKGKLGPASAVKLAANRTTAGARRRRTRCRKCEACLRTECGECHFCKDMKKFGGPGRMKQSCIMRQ
Protocol: (§1) Histone lysine demethylase AlphaLISA assays are performed to determine IC50 values. […] Assays are performed analogously to the protocol described by PerkinElmer (Roy et al. PerkinElmer Technical Note: AlphaLISA #12, April 2011).
(§2) Assays are performed analogously to the protocol described by PerkinElmer (Roy et al. PerkinElmer Technical Note: AlphaLISA #12, April 2011).
(§3) Enzymes (final assay concentration 0.1-2.5 nM) are dissolved in enzyme buffer and incubated for 10 min before 5 μL is added to 5 μL 3% DMSO solutions of compounds in enzyme buffer, incubated for another 10 minutes, before 5 μL substrate solution is added and the reaction mixture is incubated at room temperature. 10 μL acceptor beads, suspended Epigenetic Buffer (Perkin Elmer AL008) from stock, are added and the suspension is incubated in the dark at room temperature, before 10 μL suspension of streptavidin donor beads (Perkin Elmer 6760002) in Epigenetic Buffer is added. After incubation at room temperature in the dark the plates are read.
(§4) Substrate solution: Substrate (final assay concentration 50-200 nM), 50 mM Hepes (pH 7.4-8.0), 0.003% Tween-20, 0.1% BS, 25 μM L-Asc, 10 μM α-KG. Enzyme Buffer: 50 mM Hepes (pH 7.4-8.0), 0.003% Tween-20, 0.1% BSA; 5 μM (NH4)2Fe(SO4)2

PHF8 (KDM7) = PHF8 (KDM7) (Homo sapiens, UniProt Q9UPP1); assay: Histone lysine demethylase AlphaLISA assay, PHF8; settings: in vitro enzyme, read-out: PHF8 IC50 (HDME Inhibition)
Protocol: as §1, §2, §3, §4

KDM6A (UTX) = biological target: T2, KDM6A (UTX) (Homo sapiens, UniProt O15550); assay: Histone lysine demethylase AlphaLISA assay, KDM6A; settings: in vitro enzyme, read-out: KDM6A IC50 (HDME Inhibition)
T2 construct: 919-1401; host or cells: E. coli
Protocol: as §1, §2, §3, §4

KDM5B (PLU-1) = biological target: T3, KDM5B (PLU-1) (Homo sapiens, UniProt Q9UGL1); assay: Histone lysine demethylase AlphaLISA assay, KDM5B; settings: in vitro enzyme, read-out: KDM5B IC50 (HDME Inhibition)
T3 construct: 1-809; host or cells: E. coli
T3 sequence (Q9UGL1 1-809): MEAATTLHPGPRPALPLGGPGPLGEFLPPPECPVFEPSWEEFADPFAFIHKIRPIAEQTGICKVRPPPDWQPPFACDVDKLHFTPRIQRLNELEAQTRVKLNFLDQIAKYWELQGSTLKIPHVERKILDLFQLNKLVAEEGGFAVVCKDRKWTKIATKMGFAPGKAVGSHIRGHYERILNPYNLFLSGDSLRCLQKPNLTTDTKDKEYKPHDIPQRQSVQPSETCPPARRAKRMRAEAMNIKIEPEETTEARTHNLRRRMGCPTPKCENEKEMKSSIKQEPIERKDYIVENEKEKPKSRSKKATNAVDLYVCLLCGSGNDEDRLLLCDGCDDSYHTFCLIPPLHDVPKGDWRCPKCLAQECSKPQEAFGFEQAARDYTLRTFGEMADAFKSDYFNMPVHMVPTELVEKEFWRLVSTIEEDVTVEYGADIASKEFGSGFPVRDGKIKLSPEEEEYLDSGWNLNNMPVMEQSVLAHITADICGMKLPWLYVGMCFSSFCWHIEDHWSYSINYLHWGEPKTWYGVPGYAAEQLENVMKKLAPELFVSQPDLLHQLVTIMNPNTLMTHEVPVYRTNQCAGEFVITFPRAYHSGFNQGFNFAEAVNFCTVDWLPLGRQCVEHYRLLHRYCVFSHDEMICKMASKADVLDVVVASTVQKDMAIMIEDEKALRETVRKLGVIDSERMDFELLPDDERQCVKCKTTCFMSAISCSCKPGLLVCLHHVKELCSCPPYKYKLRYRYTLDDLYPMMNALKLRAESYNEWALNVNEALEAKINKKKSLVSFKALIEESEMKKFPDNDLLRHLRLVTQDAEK
Protocol: as §1, §2, §3, §4

T2 sequence (O15550 919-1401): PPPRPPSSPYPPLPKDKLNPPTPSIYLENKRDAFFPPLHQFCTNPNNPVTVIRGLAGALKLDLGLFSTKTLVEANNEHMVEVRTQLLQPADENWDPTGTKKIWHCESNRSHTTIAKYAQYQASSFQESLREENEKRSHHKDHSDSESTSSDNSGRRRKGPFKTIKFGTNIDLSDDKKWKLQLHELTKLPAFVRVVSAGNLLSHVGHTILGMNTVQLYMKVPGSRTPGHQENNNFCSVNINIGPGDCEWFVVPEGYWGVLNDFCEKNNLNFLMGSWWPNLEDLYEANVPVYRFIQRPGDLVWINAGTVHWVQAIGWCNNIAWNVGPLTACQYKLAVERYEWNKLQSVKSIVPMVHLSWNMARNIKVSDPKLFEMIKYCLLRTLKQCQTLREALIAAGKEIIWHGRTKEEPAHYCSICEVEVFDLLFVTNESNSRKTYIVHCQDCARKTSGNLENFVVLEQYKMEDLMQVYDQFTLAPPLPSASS
Sequence of PHF8 (KDM7) (Q9UPP1 whole entry): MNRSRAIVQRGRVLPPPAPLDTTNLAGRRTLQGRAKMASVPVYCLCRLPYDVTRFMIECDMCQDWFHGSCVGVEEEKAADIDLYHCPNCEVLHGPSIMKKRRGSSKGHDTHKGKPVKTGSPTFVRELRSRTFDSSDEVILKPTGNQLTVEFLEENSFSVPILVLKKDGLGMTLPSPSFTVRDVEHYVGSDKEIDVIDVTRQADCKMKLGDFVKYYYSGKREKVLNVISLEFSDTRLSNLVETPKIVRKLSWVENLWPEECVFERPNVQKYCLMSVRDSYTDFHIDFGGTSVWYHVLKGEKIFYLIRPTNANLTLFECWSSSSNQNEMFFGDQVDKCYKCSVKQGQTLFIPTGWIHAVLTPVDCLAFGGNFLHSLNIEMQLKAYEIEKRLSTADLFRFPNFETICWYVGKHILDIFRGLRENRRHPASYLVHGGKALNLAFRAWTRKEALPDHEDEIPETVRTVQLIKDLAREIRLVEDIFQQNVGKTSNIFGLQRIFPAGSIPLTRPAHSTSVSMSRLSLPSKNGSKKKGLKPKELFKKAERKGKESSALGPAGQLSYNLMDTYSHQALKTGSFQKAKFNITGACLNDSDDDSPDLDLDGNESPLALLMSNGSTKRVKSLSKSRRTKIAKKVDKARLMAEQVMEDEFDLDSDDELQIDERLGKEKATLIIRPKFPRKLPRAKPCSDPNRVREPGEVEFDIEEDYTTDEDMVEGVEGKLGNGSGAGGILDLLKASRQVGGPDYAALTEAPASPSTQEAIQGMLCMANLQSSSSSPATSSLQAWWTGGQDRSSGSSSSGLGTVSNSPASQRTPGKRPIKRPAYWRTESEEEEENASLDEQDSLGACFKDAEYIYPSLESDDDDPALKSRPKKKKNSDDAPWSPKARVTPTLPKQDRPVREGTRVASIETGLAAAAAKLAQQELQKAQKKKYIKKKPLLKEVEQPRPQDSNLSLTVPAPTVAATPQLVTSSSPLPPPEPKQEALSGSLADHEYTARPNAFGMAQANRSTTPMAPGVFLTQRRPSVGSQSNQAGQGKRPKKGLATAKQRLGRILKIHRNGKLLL

| SMILES | IC50 (KDM2B (FBXL10)) | IC50 (PHF8 (KDM7)) | IC50 (KDM6A (UTX)) | IC50 (KDM5B (PLU-1)) |
| --- | --- | --- | --- | --- |
| CC(N[C@@H](C)C(=O)NCc1ccccc1O)c1cc(C(=O)O)ccn1 (stereo partly drawn) [Compound 6, 2-(1-{[(1S)-1-{[(2-hydroxyphenyl)methyl]carbamoyl}ethyl]amino}ethyl)pyridine-4-carboxylic acid] | 250 to 2500 nM | 250 to 2500 nM | > 2500 nM | – |
| CC(C)C[C@H](NCc1cc(C(=O)O)ccn1)C(=O)NCc1ccccc1NC(=O)C1CC1C (stereo partly drawn) [Compound 7, 2-({[(1S)-3-methyl-1-({[2-(2-methylcyclopropane-amido)phenyl]methyl}carbamoyl)butyl]amino}methyl)pyridine-4-carboxylic acid] | 250 to 2500 nM | 250 to 2500 nM | > 2500 nM | – |
| C=CCN(CC=C)C(=O)[C@@H](CC(=O)NCC1CC1)NCc1cc(C(=O)O)ccn1 [Compound 18, 2-({[(1R)-1-[bis(prop-2-en-1-yl)carbamoyl]-2-[(cyclopropylmethyl)carbamoyl]ethyl]amino}methyl)pyridine-4-carboxylic acid] | 250 to 2500 nM | – | > 2500 nM | 250 to 2500 nM |
| CC(N[C@@H](C)C(=O)NCc1ccccc1CO)c1cc(C(=O)O)ccn1 (stereo partly drawn) [Compound 19, 2-(1-{[(1S)-1-({[2-(hydroxymethyl)phenyl]methyl}carbamoyl)ethyl]amino}ethyl) pyridine-4-carboxylic acid] | 250 to 2500 nM | 250 to 2500 nM | > 2500 nM | – |
| C=CCN(CC=C)C(=O)[C@@H](CC(=O)NCCCC)NCc1cc(C(=O)O)ccn1 [Compound 24, 2-({[(1R)-1-[bis(prop-2-en-1-yl)carbamoyl]-2-(butylcarbamoyl)ethyl]amino}methyl)pyridine-4-carboxylic acid] | 250 to 2500 nM | – | > 2500 nM | > 2500 nM |
| C=CCN(CC=C)C(=O)[C@@H](CCC(N)=O)NCc1cc(C(=O)O)ccn1 [Compound 25, 2-({[(1R)-1-[bis(prop-2-en-1-yl)carbamoyl]-3-carbamoylpropyl]amino}methyl)pyridine-4-carboxylic acid] | 250 to 2500 nM | 250 to 2500 nM | – | 250 to 2500 nM |
| CC(N[C@@H](C)c1nccs1)c1cc(C(=O)O)ccn1 (stereo partly drawn) [Compound 28, 2-(1-{[(1S)-1-(1,3-thiazol-2-yl)ethyl]amino}ethyl) pyridine-4-carboxylic acid] | 250 to 2500 nM | 250 to 2500 nM | > 2500 nM | – |
| CC(N[C@@H](C)C(=O)NCc1ccccc1)c1cc(C(=O)O)ccn1 (stereo partly drawn) [Compound 36, 2-(1-{[(1S)-1-(benzylcarbamoyl)ethyl]amino}ethyl)pyridine-4-carboxylic acid] | 250 to 2500 nM | 250 to 2500 nM | > 2500 nM | – |
| CC(C)C[C@H](NCc1cc(C(=O)O)ccn1)C(=O)NCC1CCS(=O)(=O)C1 (stereo partly drawn) [Compound 38, 2-({[(1S)-1-{[(1,1-dioxo-1-thiolan-3-yl)methyl]carbamoyl}-3-methylbutyl]amino}methyl)pyridine-4-carboxylic acid] | 250 to 2500 nM | 250 to 2500 nM | > 2500 nM | – |
| CCCC(NCC(=O)N1CCCCC1)c1cc(C(=O)O)ccn1 (stereo not shown) [Compound 45, 2-(1-{[2-oxo-2-(piperidin-1-yl)ethyl]amino}butyl) pyridine-4-carboxylic acid] | 250 to 2500 nM | 250 to 2500 nM | – | – |
| COc1ccc(CCCN(CC(=O)N2CCCCC2)Cc2cc(C(=O)O)ccn2)cc1 [Compound 46, 2-({[3-(4-methoxyphenyl)propyl] [2-oxo-2-(piperidin-1-yl)ethyl]amino}methyl) pyridine-4-carboxylic acid] | 250 to 2500 nM | 250 to 2500 nM | – | – |
| O=C(O)c1ccnc(CN2CCn3ccnc3C2)c1 [Compound 52, 2-{5H,6H,7H,8H-imidazo[1,2-a]pyrazin-7-ylmethyl}pyridine-4-carboxylic acid] | > 2500 nM | – | > 2500 nM | 250 to 2500 nM |
| CN(C)CC1CCN(Cc2cc(C(=O)O)ccn2)Cc2nccn21 (stereo not shown) [Compound 54, 2-({5-[(dimethylamino)methyl]-5H,6H,7H,8H,9H-imidazo[1,2-a][1,4]diazepin-8-yl}methyl)pyridine-4-carboxylic acid] | > 2500 nM | – | – | 250 to 2500 nM |
| CC(C)C[C@@H]1[C@@H](O)CC(C)N1Cc1cc(C(=O)O)ccn1 (stereo partly drawn) [Compound 59, 2-{[(2R,3S)-3-hydroxy-5-methyl-2-(2-methylpropyl)pyrrolidin-1-yl]methyl}pyridine-4-carboxylic acid] | 250 to 2500 nM | 250 to 2500 nM | – | 250 to 2500 nM |
| CC(C)C[C@H](NCc1cc(C(=O)O)ccn1)C1CCCO1 (stereo partly drawn) [Compound 60, 2-({[(1S)-3-methyl-1-(oxolan-2-yl)butyl]amino}methyl) pyridine-4-carboxylic acid] | > 2500 nM | – | > 2500 nM | < 250 nM |
| O=C(O)c1ccnc(CN2CCCCC2CO)c1 (stereo not shown) [Compound 66, 2-{[2-(hydroxymethyl)piperidin-1-yl]methyl} pyridine-4-carboxylic acid] | 250 to 2500 nM | > 2500 nM | – | > 2500 nM |
| O=C(O)c1ccnc(CNCc2cncc3ccccc23)c1 [Compound 85, 2-{[(isoquinolin-4-ylmethyl)amino]methyl}pyridine-4-carboxylic acid] | < 250 nM | – | > 2500 nM | – |
| O=C(O)c1ccnc(CNCc2ccc3ncccc3c2)c1 [Compound 87, 2-{[(quinolin-6-ylmethyl)amino]methyl}pyridine-4-carboxylic acid] | 250 to 2500 nM | < 250 nM | – | < 250 nM |
| O=C(O)c1ccnc(CNC2CCc3c(CCc4ccccc4)ccnc32)c1 (stereo not shown) [Compound 96, 2-({[4-(2-phenylethyl)-5H,6H,7H-cyclopenta[b]pyridin-7-yl]amino}methyl)pyri-dine-4-carboxylic acid] | < 250 nM | < 250 nM | – | – |
| CCc1ccnc2c1CCC2NCc1cc(C(=O)O)ccn1 (stereo not shown) [Compound 97, 2-[({4-ethyl-5H,6H,7H-cyclopenta[b]pyridin-7-yl}amino)methyl]pyri-dine-4-carboxylic acid] | < 250 nM | < 250 nM | – | < 250 nM |
| CC1(C)Cc2cccnc2C1NCc1cc(C(=O)O)ccn1 (stereo not shown) [Compound 102, 2-[({6,6-dimethyl-5H,6H,7H-cyclopenta[b]pyridin-7-yl}amino)methyl]pyri-dine-4-carboxylic acid] | 250 to 2500 nM | 250 to 2500 nM | – | 250 to 2500 nM |
| CCN1CCC[C@H](CNCc2cc(C(=O)O)ccn2)C1=O [Compound 107, 2-[({[(3R)-1-ethyl-2-oxopiperidin-3-yl]methyl}amino)methyl]pyridine-4-carboxylic acid] | < 250 nM | – | > 2500 nM | < 250 nM |
